The values below come from US9957271B2, “Substituted bicyclic aza-heterocycles and analogues as sirtuin modulators” (GlaxoSmithKline, LLC, priority 2012, dated 2018).

Test [1] deals with T1, SIRT1 (Homo sapiens, UniProt Q96EB6).
T1 sequence (Q96EB6 1-747): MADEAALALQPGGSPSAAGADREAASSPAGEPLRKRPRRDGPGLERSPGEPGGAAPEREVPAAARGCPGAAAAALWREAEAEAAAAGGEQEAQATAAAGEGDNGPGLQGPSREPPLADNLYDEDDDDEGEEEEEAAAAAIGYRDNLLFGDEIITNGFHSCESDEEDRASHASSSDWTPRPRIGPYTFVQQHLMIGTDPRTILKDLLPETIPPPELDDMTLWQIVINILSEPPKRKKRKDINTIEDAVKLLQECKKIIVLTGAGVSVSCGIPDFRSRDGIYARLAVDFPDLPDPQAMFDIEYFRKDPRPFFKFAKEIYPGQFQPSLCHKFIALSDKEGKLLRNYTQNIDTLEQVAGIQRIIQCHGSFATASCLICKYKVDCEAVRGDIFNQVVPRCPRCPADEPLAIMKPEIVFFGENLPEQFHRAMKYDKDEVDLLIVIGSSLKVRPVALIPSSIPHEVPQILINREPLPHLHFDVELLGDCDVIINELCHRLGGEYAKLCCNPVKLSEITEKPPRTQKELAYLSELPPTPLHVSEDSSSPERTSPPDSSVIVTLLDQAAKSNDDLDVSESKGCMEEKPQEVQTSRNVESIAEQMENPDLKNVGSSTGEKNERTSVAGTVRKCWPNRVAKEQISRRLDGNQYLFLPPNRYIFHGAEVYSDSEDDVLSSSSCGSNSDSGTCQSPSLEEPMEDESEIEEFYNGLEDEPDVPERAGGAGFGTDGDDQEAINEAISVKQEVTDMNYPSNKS
The experiment in a line: Trp mass spectrometry assay of SIRT1 activity. It is filed as biochemical. The following applies: Trp peptide substrate; for Trp EC1.5: concentration giving 150% activation of SIRT1; for Emax: percent maximum fold activation, read-out: Trp % Fold Act. The procedure, abridged: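 His-tagged SIRT1 expressed in E. coli BL21(DE3), 10 nM, incubated 25 min at 25° C. with 0.5 μM Ac-RHKK(Ac)W-NH2 peptide and 120 μM βNAD+ in 50 mM HEPES pH 7.5, […], 1 mM DTT, 0.05% BSA; formic acid stop. OAADPR or deacetylated peptide measured by mass spectrometry; EC1.5 and percent maximum activation versus DMSO control.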

Test [2] has as its target T1, SIRT1. Briefly: TAMRA based mass spectrometry assay of SIRT1 activity. It is filed as biochemical. The following applies: TAMRA peptide substrate; for TAMRA EC1.5: concentration giving 150% activation of SIRT1; for Emax: percent maximum fold activation, read-out: TAMRA % Fold Act. The procedure, abridged: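 Recombinant N-terminal His-tagged human SIRT1 (10 nM, E. coli) incubated 25 min at 25 °C with 0.5 μM 5TMR-labelled p53-derived acetyl-peptide and 120 μM βNAD+ in Tris-acetate pH 8 buffer with DTT and 0.05% BSA, compound at varying concentrations. Stopped with formic acid; deacetylated peptide or OAADPR measured by mass spectrometry relative to DMSO controls.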

Take `Cc1cccc(C(=O)Nc2cnc3ccc(N4CC[C@H](F)C4)nn23)n1` [Compound 565, (S)-N-(6-(3-fluoropyrrolidin-1-yl)imidazo[1,2-b]pyridazin-3-yl)-6-methylpicolinamide]: in test [1], the “Trp EC1.5” value is given as “B (EC1.5 1-25 μM)” and the Emax was less than 350%. In test [2], the “TAMRA EC1.5” value is reported as “B (EC1.5 1-25 μM)” and the Emax was no less than 350%.
Take `Cc1cc(C)nc(C(=O)Nc2cnc3ccc(N4CC[C@H](F)C4)nn23)c1` [Compound 566]: in test [1], the “Trp EC1.5” value is recorded as “B (EC1.5 1-25 μM)” and the Emax is less than 350%. In test [2], the “TAMRA EC1.5” value is “B (EC1.5 1-25 μM)” and the Emax is no less than 350%.
For the compound `Cc1nn2ccc(-c3ccccc3C(F)(F)F)nc2c1NC(=O)c1cccnc1` [Compound 568], in test [1], the “Trp EC1.5” value was “C (EC1.5>25 μM)” and the Emax is less than 350%. In test [2], the “TAMRA EC1.5” value is “C (EC1.5>25 μM)” and the Emax was less than 350%.
In the case of `Cc1nn2ccc(-c3ccccc3C(F)(F)F)nc2c1NC(=O)c1cnccn1` [Compound 571], in test [1], the “Trp EC1.5” value is listed as “B (EC1.5 1-25 μM)” and the Emax is less than 350%. In addition, in test [2], the “TAMRA EC1.5” value is “C (EC1.5>25 μM)” and the Emax was less than 350%.
As for `Cc1nn2ccc(-c3ccccc3C(F)(F)F)nc2c1NC(=O)c1ccncn1` [Compound 572], in test [1], the “Trp EC1.5” value is “C (EC1.5>25 μM)” and the Emax was less than 350%. In test [2], the “TAMRA EC1.5” value was “C (EC1.5>25 μM)” and the Emax was less than 350%.
On to `Cc1nn2ccc(-c3ccccc3C(F)(F)F)nc2c1NC(=O)c1cccc(N2CCOCC2)n1` [Compound 574], for which, in test [1], the “Trp EC1.5” value is “B (EC1.5 1-25 μM)” and the Emax is less than 350%. In addition, in test [2], the “TAMRA EC1.5” value is given as “A (EC1.5<1 μM)” and the Emax is no less than 350%.
On to `Cc1nn2ccc(-c3ccccc3C(F)(F)F)nc2c1C(=O)Nc1cccc(O)n1` [Compound 577], for which, in test [1], the “Trp EC1.5” value was “A (EC1.5<1 μM)” and the Emax was less than 350%. Also, in test [2], the “TAMRA EC1.5” value was “B (EC1.5 1-25 μM)” and the Emax is less than 350%.
`O=C(Nc1cccc(N2CCOCC2)n1)c1cnc2ccc(N3CCCC(C(F)(F)F)C3)nn12` (stereo not shown) [Compound 578]: in test [1], the “Trp EC1.5” value is listed as “A (EC1.5<1 μM)” and the Emax is no less than 350%. Besides, in test [2], the “TAMRA EC1.5” value is recorded as “A (EC1.5<1 μM)” and the Emax is no less than 350%.
`O=C(Nc1cccc(O)n1)c1cnn2ccc(-c3ccccc3OC(F)(F)F)nc12` [Compound 580]: in test [1], the “Trp EC1.5” value was “A (EC1.5<1 μM)” and the Emax is no less than 350%. Besides, in test [2], the “TAMRA EC1.5” value is recorded as “B (EC1.5 1-25 μM)” and the Emax was no less than 350%.
For the compound `O=C(Nc1cnn2ccc(-c3ccccc3OC(F)(F)F)nc12)c1ccncc1` [Compound 583], in test [1], the “Trp EC1.5” value was “C (EC1.5>25 μM)” and the Emax was less than 350%. Moreover, in test [2], the “TAMRA EC1.5” value was “B (EC1.5 1-25 μM)” and the Emax is less than 350%.
On to `O=C(Nc1cnn2ccc(-c3ccccc3OC(F)(F)F)nc12)c1cnccn1` [Compound 584], for which, in test [1], the “Trp EC1.5” value was “C (EC1.5>25 μM)” and the Emax was less than 350%. In test [2], the “TAMRA EC1.5” value is “B (EC1.5 1-25 μM)” and the Emax was no less than 350%.
For `Cc1nc2c(C)cc(-c3ccccc3C(F)(F)F)nn2c1C(=O)Nc1cnccn1` [Compound 586] the same measures were “A (EC1.5<1 μM)”, no less than 350%, “A (EC1.5<1 μM)” and no less than 350%.
As for `COc1cccc(C(=O)Nc2c(C)nc3c(C)cc(-c4ccccc4C(F)(F)F)nn23)n1` [Compound 589, N-(2,8-dimethyl-6-(2-(trifluoromethyl)phenyl)imidazo[1,2-b]pyridazin-3-yl)-6-methoxypicolinamide], in test [1], the “Trp EC1.5” value is on record as “B (EC1.5 1-25 μM)” and the Emax was less than 350%. In test [2], the “TAMRA EC1.5” value was “B (EC1.5 1-25 μM)” and the Emax was no less than 350%.
